From patent publication US9586963B2 (GENFIT, priority 2011, dated 2017)
Counter-ions that a name gives are not always drawn. Like-named read-outs stand apart in the source and are kept apart here.

Key:
Rev-Erb alpha = biological target: T1, Rev-Erb alpha (Homo sapiens, UniProt P20393); experiment: M2H (mammalian two-hybrid) cellular activation assay of Rev-Erb alpha; assay type: cell-based; details: for EC50: Gal4-Rev-Erb alpha / VP16-NCoR, luciferase reporter
T1 sequence (P20393 284-614 limits assumed): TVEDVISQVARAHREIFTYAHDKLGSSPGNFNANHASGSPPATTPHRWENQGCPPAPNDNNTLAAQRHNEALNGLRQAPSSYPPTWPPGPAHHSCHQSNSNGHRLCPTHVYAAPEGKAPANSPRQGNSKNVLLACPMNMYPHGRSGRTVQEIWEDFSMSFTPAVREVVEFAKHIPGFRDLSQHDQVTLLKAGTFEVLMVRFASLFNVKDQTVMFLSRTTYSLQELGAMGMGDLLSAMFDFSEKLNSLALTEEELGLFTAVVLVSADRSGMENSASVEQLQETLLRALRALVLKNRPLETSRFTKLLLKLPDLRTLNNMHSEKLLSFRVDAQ
Method in brief: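 Six-point dose-response, 18 h, 37 °C, serum-free, in HEK293 cells carrying a Gal4-RE luciferase reporter with Gal4-Rev-Erb alpha or beta plus VP16-NCoR (corepressor interaction readout). EC50 and TOP activation (%) derived from luminescence across four experiments.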

[1] = M2H assay, HEK293 cells, relative to DMSO, at the tested dose, read-out: TOP activation

| Compound | EC50 (Rev-Erb alpha; M2H assay, HEK293 cells) [nM] | also measured |
| --- | --- | --- |
| FC(F)(F)c1ccc(-c2ccccc2)c(Oc2cc(-c3ccccc3)c3nnc(Cl)n3n2)c1 [Cpd.5-4, 3-chloro-8-phenyl-6-(4-trifluoromethyl-biphenyl-2-yloxy)-[1,2,4]triazolo[4,3-b]pyridazine] |  | melting point: 162 to 164 °C |
| COC(=O)c1ccc(Oc2ccc3nnc(Cl)n3n2)c(-c2ccccc2)c1 (as salt: sodium) [Cpd.4-69, 3-chloro-6-(5-methyloxycarbonyl-biphenyl-2-yloxy)-[1,2,4]triazolo[4,3-b]pyridazine] |  | melting point: 75.9 to 78.8 °C |
| COc1ncc(-c2ccc(C(F)(F)F)cc2Oc2nn3c(Cl)nnc3cc2C)c(OC)n1 [Cpd.5-51, 3-chloro-6-(2-(2,4-dimethoxypyrimidin-5-yl)-5-(trifluoromethyl)phenoxy)-7-methyl-[1,2,4]triazolo[4,3-b]pyridazine] | 1000 to 6000 |  |
| Cc1cccc(-c2cc(F)ccc2Oc2ccc3nnc(C(F)(F)F)n3n2)c1 [Cpd.4-136, 3-(trifluoromethyl)-6-(5-fluoro-3′-methylbiphenyl-2-yloxy)-[1,2,4]triazolo[4,3-b]pyridazine] | 100 to 1000 |  |
| Fc1ccc(Oc2ccc3nnc(Cl)n3n2)c(-c2cccc(CN3CCCCC3)c2)c1 [hydrochloride] | > 6000 | Emax (Rev-Erb alpha; HEK293, read-out: TOP activation): > 130% |
| CC(C)(C)OC(=O)NCc1ccc(Oc2ccc3nnc(Cl)n3n2)c(-c2ccccc2)c1 [Cpd.4-170, 3-chloro-6-(5-(tertbutyloxycarbonylaminomethyl)biphenyl-2-yloxy)-[1,2,4]triazolo[4,3-b]pyridazine] | 100 to 1000 |  |
| CN1CCN(Cc2ccc(C(F)(F)F)cc2Oc2ccc3nnc(Cl)n3n2)CC1 [Cpd.4-124, 3-chloro-6-(2-((4-methylpiperazin-1-yl)methyl)-5-(trifluoromethyl)phenoxy)-[1,2,4]triazolo[4,3-b]pyridazine] | > 6000 | Emax (Rev-Erb alpha; [1]): > 130% |
| CN(Cc1ccccc1)Cc1ccc(Oc2ccc3nnc(Cl)n3n2)c(-c2ccccc2)c1 | 100 to 1000 |  |
| FC(F)(F)c1ccc(-c2ccccn2)c(Oc2ccc3nnc(Cl)n3n2)c1 [Cpd.4-97, 3-chloro-6-(2-(pyridin-2-yl)-5-(trifluoromethyl)phenoxy)-[1,2,4]triazolo[4,3-b]pyridazine hydrochloride] | 1000 to 6000 |  |
| Clc1nnc2ccc(Oc3ccc(CNC4CCCC4)cc3-c3ccccc3)nn12 [Cpd.4-160, 3-chloro-6-(5-(cyclopentylaminomethyl)biphenyl-2-yloxy)-[1,2,4]triazolo[4,3-b]pyridazine] | 1000 to 6000 |  |
| Cc1ccc(-c2cc(F)ccc2Oc2ccc3nnc(C(F)(F)F)n3n2)cc1 [Cpd.4-142, 3-(trifluoromethyl)-6-(5-fluoro-4′-methylbiphenyl-2-yloxy)-[1,2,4]triazolo[4,3-b]pyridazine] | 1000 to 6000 |  |
| O=[N+]([O-])c1ccc(Oc2ccc3nnc(Cl)n3n2)c(-c2ccccc2)c1 [Cpd.4-134, 3-chloro-6-(5-nitrobiphenyl-2-yloxy)-[1,2,4]triazolo[4,3-b]pyridazine] | 1000 to 6000 |  |
| COC(=O)c1ccc(-c2ccccc2)c(Oc2ccc3nnc(Cl)n3n2)c1 [Cpd.4-43, 3-chloro-6-(4-methyloxycarbonyl-biphenyl-2-yloxy)-[1,2,4]triazolo[4,3-b]pyridazine] | < 100 |  |
| CN(C)Cc1ccc(Oc2ccc3nnc(Cl)n3n2)c(-c2ccccc2)c1 [Cpd.4-63, 3-chloro-6-(5-N,N-dimethylaminomethyl-biphenyl-2-yloxy)-[1,2,4]triazolo[4,3-b]pyridazine] | > 6000 | Emax (Rev-Erb alpha; [1]): > 130% |
| CN(Cc1ccc(Oc2ccc3nnc(Cl)n3n2)c(-c2ccccc2)c1)C1CCCCC1 | 1000 to 6000 |  |
| COc1ccncc1-c1ccc(C(F)(F)F)cc1Oc1ccc2nnc(Cl)n2n1 [Cpd.4-100, 3-chloro-6-(2-(4-methoxypyridin-3-yl)-5-(trifluoromethyl)phenoxy)-[1,2,4]triazolo[4,3-b]pyridazine] | 1000 to 6000 |  |
| Cc1cc2nnc(Cl)n2nc1Oc1c(-c2cncnc2)ccc(C(F)(F)F)c1F [Cpd.5-31, 3-chloro-6-(2-fluoro-6-(pyrimidin-5-yl)-3-(trifluoromethyl)phenoxy)-7-methyl-[1,2,4]triazolo[4,3-b]pyridazine] | 1000 to 6000 |  |
| COc1ncccc1-c1ccc(C(F)(F)F)cc1Oc1nn2c(Cl)nnc2c(C)c1C [Cpd.5-25, 3-chloro-7,8-dimethyl-6-((2-(2-methoxypyridin-3-yl))-5-(trifluoromethyl)phenoxy)-[1,2,4]triazolo[4,3-b]pyridazine] | 1000 to 6000 |  |
| Oc1cccc(-c2cc(F)c(F)cc2Oc2ccc3nnc(Cl)n3n2)c1 [Cpd.4-153, 3-chloro-6-(4,5-difluoro-3′-hydroxybiphenyl-2-yloxy)-[1,2,4]triazolo[4,3-b]pyridazine] | 1000 to 6000 |  |

| Compound | EC50 (Rev-Erb alpha; M2H assay, HEK293 cells) [nM] | also measured |
| --- | --- | --- |
| Clc1nnc2ccc(Oc3cc(CNC4CC4)ccc3-c3ccccc3)nn12 [Cpd.4-178, 3-chloro-6-(4-cyclopropylaminomethylbiphenyl-2-yloxy)-[1,2,4]triazolo[4,3-b]pyridazine] | 1000 to 6000 |  |
| Clc1nnc2ccc(Oc3cc(CNCC4CCCCC4)ccc3-c3ccccc3)nn12 [Cpd.4-176, 3-chloro-6-(4-(cyclohexylmethyl)aminomethylbiphenyl-2-yloxy)-[1,2,4]triazolo[4,3-b]pyridazine] | 1000 to 6000 |  |
| COC(=O)c1ccc(Oc2ccc3nnc(Cl)n3n2)c(-c2ccccc2)c1 [Cpd.4-69, 3-chloro-6-(5-methyloxycarbonyl-biphenyl-2-yloxy)-[1,2,4]triazolo[4,3-b]pyridazine] | 100 to 1000 |  |
| CCc1c(Oc2cc(C(F)(F)F)ccc2-c2ccccc2)nn2c(Cl)nnc2c1CC [Cpd.5-12, 3-chloro-7,8-diethyl-6-(4-trifluoromethyl-biphenyl-2-yloxy)-[1,2,4]triazolo[4,3-b]pyridazine] | 100 to 1000 |  |
| COc1ccc(-c2ccc(C(F)(F)F)cc2Oc2ccc3nnc(Cl)n3n2)cn1 [Cpd.4-81, 3-chloro-6-(2-(6-methoxypyridin-3-yl)-5-(trifluoromethyl)phenoxy)-[1,2,4]triazolo[4,3-b]pyridazine] | 100 to 1000 |  |
| COc1ncc(-c2ccc(C(F)(F)F)cc2Oc2nn3c(Cl)nnc3c3ccccc23)cn1 [Cpd.5-36, 3-chloro-6-((2-(2-methoxypyrimidin-5-yl))-5-(trifluoromethyl)phenoxy)-[1,2,4]triazolo[3,4-a]phthalazine] | 100 to 1000 |  |
| CS(=O)(=O)N1CCN(Cc2ccc(-c3ccccc3)c(Oc3ccc4nnc(Cl)n4n3)c2)CC1 [Cpd.4-182, 3-chloro-6-(4-(4-methanesulfonylpiperazin-1-ylmethyl)biphenyl-2-yloxy)-[1,2,4]triazolo[4,3-b]pyridazine] | 1000 to 6000 |  |
| Cc1nc(-c2ccc(-c3ccccc3)c(Oc3ccc4nnc(Cl)n4n3)c2)no1 [Cpd.4-197, 3-chloro-6-(5-(5-methyl-1,2,4-oxadiazol-3-yl)-2-(phenyl)phenoxy)-[1,2,4]triazolo[4,3-b]pyridazine] | 100 to 1000 |  |
| Clc1nnc2ccc(Oc3ccccc3-c3nccs3)nn12 [Cpd.4-104, 3-chloro-6-(2-(thiazol-2-yl)phenoxy)-[1,2,4]triazolo[4,3-b]pyridazine] | > 6000 | Emax (Rev-Erb alpha; [1]): > 130% |
| Fc1cccc(-c2cccc(Oc3ccc4nnc(Cl)n4n3)c2)c1 [Cpd.3-6, 6-(3′-fluoro-biphenyl-3-yloxy)-3-chloro-[1,2,4]triazolo[4,3-b]pyridazine] | 100 to 1000 |  |
| CCCOc1ccc(-c2ccc(C(F)(F)F)cc2Oc2ccc3nnc(Cl)n3n2)cn1 [Cpd.4-92, 3-chloro-6-(2-(6-propoxypyridin-3-yl)-5-(trifluoromethyl)phenoxy)-[1,2,4]triazolo[4,3-b]pyridazine hydrochloride] | > 6000 | Emax (Rev-Erb alpha; [1]): > 130% |
| Clc1nnc2ccc(Oc3cc(CNCC4CCCO4)ccc3-c3ccccc3)nn12 (stereo not drawn) [Cpd.4-180] | > 6000 | Emax (Rev-Erb alpha; [1]): > 130% |
| Cc1cc2nnc(Cl)n2nc1Oc1cc(C(F)(F)F)ccc1-c1cncnc1 [Cpd.5-29, 3-chloro-7-methyl-6-(2-(pyrimidin-5-yl)-5-(trifluoromethyl)phenoxy)-[1,2,4]triazolo[4,3-b]pyridazine] | 1000 to 6000 |  |
| CC(=O)Nc1ccc(Oc2ccc3nnc(Cl)n3n2)c(-c2ccccc2)c1 [Cpd.4-174, 3-chloro-6-(5-acetamidobiphenyl-2-yloxy)-[1,2,4]triazolo[4,3-b]pyridazine] | 1000 to 6000 |  |
| Fc1cc(Oc2ccc3nnc(C(F)(F)F)n3n2)c(-c2ccccc2)cc1F [Cpd.4-61, 3-trifluoromethyl-6-(4,5-difluorobiphenyl-2-yloxy)-[1,2,4]triazolo[4,3-b]pyridazine] | 1000 to 6000 |  |
| CCCCn1cc(-c2ccc(C(F)(F)F)cc2Oc2ccc3nnc(Cl)n3n2)ccc1=O [Cpd.4-89, 1-butyl-5-(2-(3-chloro-[1,2,4]triazolo[4,3-b]pyridazin-6-yloxy)-4-(trifluoromethyl)phenyl)pyridin-2(1H)-one] | > 6000 | Emax (Rev-Erb alpha; [1]): > 130% |
| CCN(CC)Cc1ccc(Oc2ccc3nnc(Cl)n3n2)c(-c2ccccc2)c1 [Cpd.4-157, 3-chloro-6-(5-diethylaminomethylbiphenyl-2-yloxy)-[1,2,4]triazolo[4,3-b]pyridazine] | > 6000 | Emax (Rev-Erb alpha; [1]): > 130% |
| CC(=O)Nc1ccc(-c2ccccc2)c(Oc2ccc3nnc(Cl)n3n2)c1 [Cpd.4-49, 3-chloro-6-(4-acetamido-biphenyl-2-yloxy)-[1,2,4]triazolo[4,3-b]pyridazine] | 1000 to 6000 |  |
